Laboratory results as given in PubChem BioAssay AID179 (DTP/NCI, 2004).
pEC50, pIC50: −log10 of the molar value. Active and inactive are the calls of the source.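 Rule for the calls: active = compounds giving half or more protection of infected cells from virus-caused growth loss, again on retest; inactive = the rest.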 Where a SMILES comes first, the peptide text is derived from it.

Tested on: CEM cells HIV-1 protection, formazan growth assay
Test: NCI AIDS Antiviral Assay
Conditions: for pIC50: measured here: growth of uninfected CEM cells
Summary of the method: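 Protection of CEM cells against HIV-1 measured as cell growth via soluble formazan read-out, with five concentrations tested on both infected and uninfected cells; failure to protect may reflect toxicity.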

SMILES	pEC50	pIC50	outcome
O=C(N/N=C/c1ccccc1O)c1ccccc1Nc1ccccc1C(=O)N/N=C/c1ccccc1O	< 4.37	5.74	
O=C(CCc1ccccc1)ON1C(=S)NC(c2ccccc2)(c2ccccc2)C1=S	< 3.70	4.48	
COC1(C)C(=O)N2C1N(C(=O)OCc1ccccc1)CC2(C)C (stereo unspecified)	< 3.60	< 3.60	
CCOC(=O)C(Cc1cn(C(C)=O)c2ccccc12)P(=O)(OCC)OCC (stereo unspecified)	< 3.70	< 3.70	
CCCCCC(=O)NC(=S)Nc1nn[nH]n1	< 3.70	< 3.70	
NC1=NC(=O)[C@H](Cc2c[nH]c3ccccc23)N1C(=O)OCc1ccccc1	< 3.70	3.92	
c1ccc2c(c1)Nc1ccccc1O2	< 4.01	4.63	
CC(Nc1cc(=O)n(C)c(=O)[nH]1)c1ccccc1 (stereo unspecified)	4.26	< 3.70	
COc1cccc(C=C2N=C(c3ccccc3)N(n3c(-c4ccccc4)nc4ccccc4c3=O)C2=O)c1	< 3.70	4.43	
CN1CCOC1c1ccccc1O (stereo unspecified)	< 3.70	< 3.70	
COc1ccc(N=C2C(=Nc3ccc(OC)cc3)N(c3ccc(N(C)C)cc3)C(=S)N2c2ccc(OC)cc2)cc1	< 4.70	6.16	
COc1ccc(N2C(=Nc3ccccc3)SC(=N/S(=O)(=O)c3ccccc3)/C2=N\S(=O)(=O)c2ccccc2)cc1	< 3.70	4.93	
CCC[N+](C)(C)CCCNC(=O)c1c(O)c2ccccc2[nH]c1=O	3.75	3.74	
S=C1N=C(Cl)/C(=C\c2ccco2)N1	< 3.70	< 3.70	
CC[C@@H]1C2CC3C4N(C)c5ccccc5[C@]45C[C@@H](C2C5O)N3C1O (stereo partly specified)			inactive
CN1C(=O)CC2(C)C1=CCc1scnc12 (stereo unspecified)	< 3.70	< 3.70	
CCCC(=O)Nc1ccc2c(ccn2COC)c1	< 3.70	< 3.70	
COc1cc(C2c3cc(OC)c(OC)c(O)c3C(=O)C3CCC(=O)N32)cc(OC)c1OC (stereo unspecified)	< 4.00	4.83	
CC(=O)Oc1ccn2nc(C)c(Br)c2c1Br	< 3.70	4.44	
CSC1=NN(C(C)=O)C(C(OC(C)=O)C(OC(C)=O)C(OC(C)=O)C(COC(C)=O)OC(C)=O)S1 (stereo unspecified)			inactive
CCCCCC[N+]1(C)CC2C3C=CC(C3)C2C1 (stereo unspecified)	< 3.61	< 4.00	
Cc1ccc(C(=O)Nc2ccc(CP(=O)(O)O)cc2CP(=O)(O)O)cc1N	< 3.76	< 3.76	
O=C1OC(c2ccccc2)c2cccnc21 (stereo unspecified)	< 2.93	< 2.93	

SMILES	pEC50	pIC50	outcome
Cn1c(=O)c2nc(NCc3ccccc3)sc2n(C)c1=O	< 4.21	< 4.21	
CCCCCCCN=C(N)CSSCC(N)=NCCCCCCC	< 3.48	4.99	
CC(C)C1=CC2=CC=C3C(C)(C)CC(=O)OC3(C)CC2=C(O)C1=O (stereo unspecified)			inactive
O=S(=O)(Nc1nnc2ccc3ccccc3n12)c1ccc(Cl)cc1S	< 3.70	3.98	
CCOC(=O)Cn1c(=O)[nH]c(=O)c2c1ncn2Cc1ccccc1	< 3.26	3.29	
CC(=O)C(CN1CCCCC1)C(c1ccccc1)c1c(O)c2ccccc2oc1=O (stereo unspecified)	< 3.92	3.93	
COc1cc2c(cc1OC)C1C=NC(C(=O)O)(C2)c2ccccc21 (stereo unspecified)			inactive
COC1=CC(=O)c2cc(C)cc(-c3cc4ccc(=O)oc4cc3OC)c2C1=O			inactive
CCN(CC)C(=S)SS(=O)(=O)c1ccc([N+](=O)[O-])cc1	< 3.70	4.72	
Cc1nc2cc(N)c(F)cc2[nH]1	< 3.27	< 3.27	
COc1ccc(C2Oc3cc(OC)cc(O)c3C(=O)C2C2C(=O)c3c(O)cc(OC)cc3OC2c2ccc(O)cc2)cc1 (stereo unspecified)	< 3.70	4.43	
CC1CN(c2ccc(Cl)cc2)CC(C)OC(=O)O1 (stereo unspecified)			inactive
CCn1cc(C(=O)O)c(=O)c2cc3c(cc21)S(=O)(=O)CC3	< 3.70	< 3.70	
COc1ccc(-c2nc3ccccc3c(=S)n2OC(C)=O)cc1	< 3.70	5.77	
CCCCCCCCNC(=O)/C(=C\c1ccc(/C=C(/NC(=O)c2ccccc2)C(=O)NCCCCCCCC)cc1)NC(=O)c1ccccc1	< 4.00	4.63	
Fc1ccc(N=NN2CCCC2)cc1	< 3.70	3.91	
C=C(Cl)CSC(=S)N1CCOCC1			inactive
NS(=O)(=O)c1nnc(NC(=O)/C=C/C(=O)O)s1	< 3.70	< 3.70	
O=C1NC(=S)N/C1=C\c1cccs1	< 3.70	3.74	
CN1C(=O)N(C)[C@@H]2CC(=O)c3ccc(C(F)(F)F)cc3N2C1=O	< 3.54	< 3.54	
CC1CN=C(Nc2cccc(C(F)(F)F)c2)S1 (stereo unspecified)	< 3.70	4.24	
Cn1c(N)c(N=Nc2ccc(S(=O)(=O)Nc3ncccn3)cc2)c(=O)n(C)c1=O	< 3.70	< 3.70	
Cc1ccc(/C(C#N)=C/c2ccc3c(c2)OCO3)cc1	< 3.70	5.00	

SMILES	pEC50	pIC50	outcome
CCc1nc(N)nc(C(=O)NCCNC(=O)c2nc(N)nc(CC)c2C)c1C	< 4.17	< 4.17	
CSc1n(CC(=O)OC(C)(C)C)nc[n+]1N	< 3.70	< 3.70	
O=C1CC(=O)NP(=O)(Oc2ccccc2)N1	< 2.98	< 2.98	
COc1ccc2nc3ccccc3c(NCCCN(C)C)c2c1[N+](=O)[O-]	< 3.70	6.23	
COc1cccc(N2C(=O)c3c(c4[nH]c5ccccc5c4c4ccc(C(C)(C)C)cc34)C2=O)c1	< 4.94	< 4.94	
COc1cc(C2c3cc(O)c(OC)cc3C[C@H]3C(=O)OCC23)ccc1O (stereo partly specified)	< 3.85	< 3.85	
N#Cc1c(N)[nH]c(=S)c(C#N)c1-c1ccccc1	< 3.70	3.87	
[CH3][Hg]/[N]=C(/N)NC#N			inactive
Nc1c2cc3ccc2nc2ccc(cc12)OCCOCCOCCOCCOCCOCCO3	< 3.70	< 3.70	
O=[N+]([O-])c1ccc2[nH]c(=S)n(/C=C(/c3ccc(Cl)cc3)S(=O)(=O)Cc3ccc(Cl)cc3)c2c1	< 3.70	3.99	
CSC1=N/C(=C\c2ccc(Cl)cc2)C(=O)N1CN1CCCCC1	< 3.70	< 3.70	
CN(C)CC/C(=N\Nc1c(F)c(F)c(F)c(F)c1F)c1ccccc1			inactive
CCOC(=O)c1cnc2c(ccc3ncccc32)c1NCCCN(CC)CC	< 4.16	5.02	
CC[C@@]1(OC(=O)CN(C)C)C(=O)OCc2c1cc1n(c2=O)Cc2cc3ccccc3nc2-1	< 5.00	7.64	
O=[N+]([O-])c1ccc([N+](=O)[O-])c(Cl)c1	< 3.70	5.50	
O=C1NC(=O)C(=Cc2ccc3c(c2)OCO3)C(=O)N1	< 4.84	< 4.84	
CCCCn1c(C)c2c(c1C)C(=O)N(CCN1CCN(c3ccccc3Cl)CC1)C2=O	< 3.70	< 3.70	
O=S1(=O)CCN2OCC1C2c1cccc2ccccc12 (stereo unspecified)			inactive
COc1c2occc2c(N)c2ccc(=O)oc12	< 4.02	< 4.02	
CCOC(=O)/C(=C/c1ccc([N+](=O)[O-])cc1)N(CC)CC	< 3.49	< 3.49	
COC1(C2c3ccccc3CCN2C(=O)OC(C)(C)C)C(=O)C(c2ccccc2)=C1N(C)C (stereo unspecified)	< 3.70	4.44	
COc1cc(C2C(Cl)C(=O)N2NC(=O)c2ccc(NC(C)=O)cc2)cc(Br)c1O (stereo unspecified)	< 3.70	3.79	
COn1oc(=O)c2ccccc21	< 3.70	< 3.70	

SMILES	pEC50	pIC50	outcome
CC1(C)OC(CP(c2ccccc2)c2ccccc2)C(CP(c2ccccc2)c2ccccc2)O1 (stereo unspecified)	< 5.70	6.64	
CC(C)=CCN1Cc2cccc([N+](=O)[O-])c2NC[C@@H]1C	< 4.07	< 4.07	
COC1C(N(C)C)=C(c2ccccc2)C(=O)N2CCc3ccccc3C12 (stereo unspecified)	< 3.70	3.77	
CC12C(=O)N(C3CCC(=O)NC3=O)C(=O)C1C1CCC2C1 (stereo unspecified)	< 3.70	< 3.70	
Cc1[nH]c2ccccc2c1C1=CC(=O)N(c2ccccc2)C1=O	< 3.70	5.06	
CC(=O)Nc1cc(C)ccc1Cl	< 2.87	< 2.87	
CCOc1ccc(-c2nc(-c3oc4ccccc4c(=O)c3OC(C)=O)cs2)cc1	< 3.70	3.95	
COc1ccc(Nc2nc3cc(C(F)(F)F)ccc3nc2-c2ccccc2)cc1OC	< 4.51	< 4.51	
CCOC(=O)C(=O)Nc1nc2ccc(OC)cc2s1	< 3.35	< 3.35	
CC1CC(Nc2ccc(Br)cc2)N(C(=O)c2ccc(Br)cc2)O1 (stereo unspecified)	< 3.70	4.77	
CC(=O)NC(CS)C(=O)NC(CO)C(=O)NC(CO)C(=O)NC(Cc1c[nH]c2ccccc12)C(=O)N1CCCC1C(=O)NC(CO)C(=O)NC(Cc1c[nH]c2ccccc12)C(=O)NC(Cc1c[nH]cn1)C(=O)NC(CO)C(=O)NC(Cc1c[nH]c2ccccc12)C(=O)NCC(=O)NCC(=O)NC(C)C(=O)NC(CCC(N)=O)C(=O)NC(CCCCN)C(=O)NC(C)C(=O)NC(CCCNC(=N)N)C(=O)NC(CCCCN)C(N)=O (stereo unspecified) (Ac-CSSWPSWHSWGGAQKARK-NH2; configuration not given here)	< 4.70	4.76	
CCOC(=O)N1C2c3ccccc3C(c3ccccc32)N1C(=O)OCC	< 4.25	< 4.25	
O/N=C1\CCCCC1C(NO)c1ccccc1 (stereo unspecified)	< 3.40	3.72	
CCN1C(=O)CCCCC(=O)Nc2ccccc2-c2ccccc21			inactive
CC(=O)C1C(=O)C(=O)N(c2ccc(Cl)c(Cl)c2)C1=O (stereo unspecified)	< 3.70	3.89	
CC(C)/C(Cl)=N\OC(=O)Nc1ccccc1F	< 3.70	5.10	
CC(CCC(=O)O)c1ccc(Br)cc1 (stereo unspecified)			inactive
O=C1OCCN1N1CCOC1=O	< 3.70	< 3.70	
COC/C=C\[C@@]1(O)CCCC[C@@H]1CC(OC)OC	< 3.70	5.91	
COC(=O)/C=C1/N=C(N(C)/N=C/c2ccccc2)NC1=O	< 3.70	< 3.70	
